SMILES | melting point [°C]
COCCNCC(=O)Nc1nc(-c2ccccc2)c(-c2ccc(=O)n(C(C)C)n2)s1.Cl | 252 to 253
CC(C)n1nc(-c2sc(NC(=O)CN3CCN(C)CC3)nc2-c2ccccc2)ccc1=O.Cl.Cl | 244 to 246
CC(C)n1nc(-c2sc(NC(=O)CN3CCOCC3)nc2-c2ccccc2)ccc1=O.Cl | 252 to 253
CC(C)n1nc(-c2sc(NC(=O)CN3CCCC3)nc2-c2ccccc2)ccc1=O.Cl | > 250
CC(C)n1nc(-c2sc(NC(=O)CNCCCN3CCCC3=O)nc2-c2ccccc2)ccc1=O.Cl | 207 to 209
CC(C)n1nc(-c2sc(NC(=O)CNCCCO)nc2-c2ccccc2)ccc1=O.Cl | 136 to 142
CC(C)n1nc(-c2sc(NC(=O)CNCCCN3CCOCC3)nc2-c2ccccc2)ccc1=O.Cl.Cl | 211 to 213
CC(C)n1nc(-c2sc(NC(=O)CNCCN(C)C)nc2-c2ccccc2)ccc1=O.Cl.Cl | 136 to 142
CC(C)n1nc(-c2sc(NC(=O)CCN3CCCC3)nc2-c2ccccc2)ccc1=O.Cl | 224 to 225
CCN(CC)CCNCC(=O)Nc1nc(-c2ccccc2)c(-c2ccc(=O)n(C(C)C)n2)s1.Cl.Cl | 157 to 159
CC(C)n1nc(-c2sc(NC(=O)CNCCN3CCOCC3)nc2-c2ccccc2)ccc1=O.Cl.Cl | 250 to 252
COCCCNCC(=O)Nc1nc(-c2ccccc2)c(-c2ccc(=O)n(C(C)C)n2)s1.Cl | > 250
CCOCCNCC(=O)Nc1nc(-c2ccccc2)c(-c2ccc(=O)n(C(C)C)n2)s1.Cl | 252 to 253
CC(C)n1nc(-c2sc(NC(=O)CNCCN3CCCCC3)nc2-c2ccccc2)ccc1=O.Cl.Cl | > 250
CC(C)n1nc(-c2sc(NCCN3CCOCC3)nc2-c2ccccc2)ccc1=O.Cl.Cl | 140 to 143
CC(C)n1nc(-c2sc(NCCCN3CCOCC3)nc2-c2ccccc2)ccc1=O.Cl.Cl | 150 to 153
CC(C)n1nc(-c2sc(NC(=O)C3CCCCC3)nc2-c2ccccc2)ccc1=O [Example 7, N-[5-(1-Isopropyl-6-oxo-1,6-dihydro-3-pyridazinyl)-4-phenyl-1,3-thiazol-2-yl]cyclohexanecarboxamide] | 234 to 236
CC(C)n1nc(-c2sc(NC(=O)c3ccc(CN4CCOCC4)cc3)nc2-c2ccccc2)ccc1=O [Example 27, N-[5-(1-Isopropyl-6-oxo-1,6-dihydro-3-pyridazinyl)-4-phenyl-1,3-thiazol-2-yl]-4-(4-morpholinylmethyl)benzamide] | 222 to 224

The next lines start with the values.

melting point [°C] | SMILES
232 to 234 | CC(C)n1nc(-c2sc(NC(=O)CN(C)C)nc2-c2ccccc2)ccc1=O.Cl
209 to 211 | CC(O)CNCC(=O)Nc1nc(-c2ccccc2)c(-c2ccc(=O)n(C(C)C)n2)s1.Cl (centres unmarked)
218 to 220 | CC(C)n1nc(-c2sc(NC(=O)CNCC(O)c3ccccc3)nc2-c2ccccc2)ccc1=O.Cl (centres unmarked)
> 250 | CC(C)NCC(=O)Nc1nc(-c2ccccc2)c(-c2ccc(=O)n(C(C)C)n2)s1.Cl
123 to 125 | CC(C)n1nc(-c2sc(NC(=O)CNC3CC3)nc2-c2ccccc2)ccc1=O.Cl
226 to 228 | Br.CNc1nc(-c2ccccc2)c(-c2ccc(=O)n(C(C)C)n2)s1
127 to 129 | Br.CC(C)n1nc(-c2sc(Nc3ccccc3)nc2-c2ccccc2)ccc1=O
204 to 205 | Br.CCCCNc1nc(-c2ccccc2)c(-c2ccc(=O)n(C(C)C)n2)s1
205 to 207 | CC(C)n1nc(-c2sc(NC(=O)Oc3ccccc3)nc2-c2ccccc2)ccc1=O
> 250 | CC(C)n1nc(-c2sc(N)nc2-c2ccccc2)ccc1=O [Example 1, 6-(2-amino-4-phenyl-1,3-thiazol-5-yl)-2-isopropyl-3(2H)-pyridazinone]
126 to 129 | CC(C)n1nc(-c2sc(NC(=O)c3ccccc3)nc2-c2ccccc2)ccc1=O [Example 2, N-[5-(1-isopropyl-6-oxo-1,6-dihydro-3-pyridazinyl)-4-phenyl-1,3-thiazol-2-yl]-benzamide]
250 to 252 | CC(C)n1nc(-c2sc(NC(=O)Cc3ccccc3)nc2-c2ccccc2)ccc1=O [Example 4, N-[5-(1-Isopropyl-6-oxo-1,6-dihydro-3-pyridazinyl)-4-phenyl-1,3-thiazol-2-yl]-2-phenylacetamide]
224 to 226 | CC(C)n1nc(-c2sc(NC(=O)C(C)(C)C)nc2-c2ccccc2)ccc1=O [Example 5, N-[5-(1-Isopropyl-6-oxo-1,6-dihydro-3-pyridazinyl)-4-phenyl-1,3-thiazol-2-yl]-2,2-dimethylpropanamide]
202 to 204 | CC(=O)Nc1nc(-c2ccccc2)c(-c2ccc(=O)n(C(C)C)n2)s1 [Example 6, N-[5-(1-isopropyl-6-oxo-1,6-dihydro-3-pyridazinyl)-4-phenyl-1,3-thiazol-2-yl]-acetamide]
243 to 244 | CC(C)n1nc(-c2sc(NC(=O)COc3ccccc3)nc2-c2ccccc2)ccc1=O [Example 8, N-[5-(1-Isopropyl-6-oxo-1,6-dihydro-3-pyridazinyl)-4-phenyl-1,3-thiazol-2-yl]-2-phenoxyacetamide]
200 to 201 | CC(C)n1nc(-c2sc(NC(=O)NCc3ccccc3)nc2-c2ccccc2)ccc1=O [Example 11, N-benzyl-N′-[5-(1-isopropyl-6-oxo-1,6-dihydro-3-pyridazinyl)-4-phenyl-1,3-thiazol-2-yl]urea]
172 to 174 | Cc1ccc(S(=O)(=O)NC(=O)Nc2nc(-c3ccccc3)c(-c3ccc(=O)n(C(C)C)n3)s2)cc1 [Example 12, N-({[5-(1-Isopropyl-6-oxo-1,6-dihydro-3-pyridazinyl)-4-phenyl-1,3-thiazol-2-yl]amino}carbonyl)-4-methylbenzene-sulfonamide]
90 to 92 | CCCCCCNc1nc(-c2ccccc2)c(-c2ccc(=O)n(C(C)C)n2)s1 [Example 14, 6-[2-(hexylamino)-4-phenyl-1,3-thiazol-5-yl]-2-isopropyl-3(2H)-pyridazinone]
226 to 228 | CC(C)n1nc(-c2sc(Nc3cccnc3)nc2-c2ccccc2)ccc1=O [Example 16, 2-Isopropyl-6-[4-phenyl-2-(3-pyridinylamino)-1,3-thiazol-5-yl]-3(2H)-pyridazinone]
182 to 184 | CC(C)n1nc(-c2sc(NCc3ccccn3)nc2-c2ccccc2)ccc1=O [Example 20, 2-Isopropyl-6-{4-phenyl-2-[(2-pyridinylmethyl)amino]-1,3-thiazol-5-yl}-3(2H)-pyridazinone]
165 to 167 | CC(=O)N(C)c1nc(-c2ccccc2)c(-c2ccc(=O)n(C(C)C)n2)s1 [Example 22, N-[5-(1-isopropyl-6-oxo-1,6-dihydro-3-pyridazinyl)-4-phenyl-1,3-thiazol-2-yl]-N-methylacetamide]
158 to 160 | CC(C)n1nc(-c2sc(N(C)C)nc2-c2ccccc2)ccc1=O [Example 23, 6-[2-(dimethylamino)-4-phenyl-1,3-thiazol-5-yl]-2-isopropyl-3(2H)-pyridazinone]
245 to 246 | CC(C)n1nc(-c2sc(NC(=O)c3ccccn3)nc2-c2ccccc2)ccc1=O [Example 26, N-[5-(1-Isopropyl-6-oxo-1,6-dihydro-3-pyridazinyl)-4-phenyl-1,3-thiazol-2-yl]-2-pyridinecarboxamide]
